Source: patent US20110306665A1, “COSMETIC PREPARATION, METHOD FOR PRODUCING SAME, COMPOSITION FOR COSMETIC PREPARATIONS, COSMETIC PREPARATION CONTAINING THE COMPOSITION FOR COSMETIC PREPARATIONS AND METHOD FOR PRODUCING SAME, AND CLEANSER FOR INDUSTRIAL USE” (The Nisshin OilliO Group, Ltd., priority 2009, published 2011)

Key:
[1] = Moisturizing properties of cosmetic preparation compositions (massage oil, panel); format: in vivo, human; set-up: key: Good: Very soft and moistened touch was felt.; Moderate: Soft and moistened touch was felt.; Poor: No moistened touch was felt; conditions: neat cosmetic preparation composition (massage oil); 0.05 g, rubbed twenty times, wiped; seven panelists
Protocol: In Example 12, the PDO diisostearate obtained from Synthesis Example 1 was used as a cosmetic preparation composition (moisturizing ingredient) for a moisturizing cosmetic preparation (massage oil), and the moisturizing properties and the feeling of use thereof were evaluated.
The insides of the arms of seven panelists were washed with soap and water, and in addition, the washed surfaces were wiped with ethanol and naturally dried. Thereafter, each of the thus washed surfaces was evenly divided into eight equal areas, to which 0.05 g of the respective cosmetic preparation compositions of Example 12, and Comparative Examples 4 to 7 and 4A to 4C, was applied and massage was done by gently rubbing with a finger twenty times. Thereafter, the area was wiped with a dry cloth. On completion of this wiping, the moisturizing properties and the feeling of use of the respective cosmetic preparation compositions were evaluated in accordance with the same criteria as those of the moisturizing gels of Examples 6 to 8 mentioned above.

[2] = Viscosity by stress-controlled rheometer at 20° C.; format: physicochemical
Protocol: (§1) Next, the viscosity and the friction coefficient of the cosmetic preparation compositions of Example 12 and Comparative Examples 4 to 7 and 4A to 4C were measured.
The viscosity was measured by using a stress-controlled rheometer (Product No. RheoStress RS1, with a C60/2 Ti sensor, a product of Haake Company) at 20° C.

[3] = Friction coefficient on artificial leather (friction tester); format: physicochemical; conditions: 5 μL on artificial leather, pressure of 100 g
Protocol: as §1
The friction coefficient was measured by such a way that: 5 μL of each cosmetic preparation composition was applied to the surface of an artificial leather (Product Name: Supplale, a product of Idemitsu Technofine Co., Ltd.), and the applied surface was measured for the friction coefficient and the change in the value of the friction coefficient, by using a friction tester (Type: TL201Ts, a product of Trinity-Lab Co., Ltd.) with a pressure of 100 g.

[4] = Cleansing properties: removal of ink of an oil paint pen from the skin (panel); format: in vivo, human; conditions: black oil paint pen line on inside of arm, rubbed thirty times at about 200 g; seven panelists
Protocol: In Example 13, the cleansing properties and the low irritation properties of the PDO-C8/C10 diester obtained from Synthesis Example 2 as a cosmetic preparation composition for a cosmetic preparation to be used for the purpose of removing an ink of an oil paint pen (ink remover ingredient) from the skin, were evaluated. The insides of the arms of seven panelists were washed with soap and water, and in addition, the washed surfaces were wiped with ethanol and naturally dried. Thereafter, using a black oil paint pen (Product Name: […] product of Zebra Co., Ltd.), a line was painted respectively on the washed surfaces of the insides of their arms. Next, the painted line was evenly divided into seven equal areas. […] From the proportion of the line painted with the oil paint pen which had been able to be removed by this removal operation, the cleansing properties of the respective cosmetic preparation compositions as an ink remover ingredient were evaluated in accordance with the following criteria. The results of their averages are shown in Table 14. <Evaluation Criteria of Cleansing Properties> Excellent: High cleansing properties, meaning that a proportion of 75 to 100% in the line painted with the oil paint pen was able to be removed. Good: Relatively high cleansing properties, meaning that a proportion of 50 to 75% in the line painted with the oil paint pen was able to be removed. Moderate: Some cleansing properties, meaning that only a proportion of 25 to 50% in the line painted with the oil paint pen was able to be removed. Poor: Weak cleansing properties, meaning that only a proportion of 0 to 25% in the line painted with the oil paint pen was able to be removed.

[5] = Low irritation properties: 24 hours airtight application with Finn Chamber (panel); format: in vivo, human
Protocol: Moreover, the low irritation properties of the respective cosmetic preparation compositions as an ink remover ingredient were evaluated in the following manner. The insides of the arms of seven panelists were washed with soap and water, and in addition, the washed surfaces were wiped with ethanol and naturally dried. Next, each of the thus washed surfaces was evenly divided into seven equal areas, to which 0.01 g of the respective cosmetic preparation compositions of Examples 13 and 13A to 13D, and Comparative Examples 8 and 9, was applied airtightly by using Finn Chamber (a product of Epitest Ltd Oy). After 24 hours, the Finn Chamber and the cosmetic preparation compositions were taken off. After 1 hour, the condition of the skin was observed. The low irritation properties of the respective cosmetic preparation compositions as an ink remover ingredient were evaluated in accordance with the following criteria. <Evaluation Criteria of Low Irritation Properties> Good: No change was found in the skin of the airtightly applied part. Moderate: A slight rash was found in the skin of the airtightly applied part.

[6] = Cleansing properties of industrial use cleansers: oil paint pen ink on coated steel panel; conditions: industrial use cleanser; black oil paint pen line on coated steel panel, rubbed thirty times at about 200 g
Protocol: The cleansing properties of the respective industrial use cleansers as an agent to remove an oil soluble colorant from a coated steel panel were evaluated in the following manner.
First, an electro-galvanized steel panel was coated with commercially available automotive paints, namely, a primer surfacer (Product Name: Primer White (a product of Musashi Holt Co., Ltd.)), a white automotive paint (Product Name: Antirust Paint (Color No. 041) (a product of Musashi Holt Co., Ltd.)), and a clear paint (Product Name: Topcoat Clear (a product of Musashi Holt Co., Ltd.)), by spraying according to the usage instruction of each product, and dried at 25° C. for 24 hours. By so doing, a coated steel panel for the test was obtained.
Next, using a black oil paint pen (Product Name: Mckee Care, a product of Zebra Co., Ltd.), a line was painted on the surface of the coated steel panel, and dried at 25° C. for 24 hours.
Subsequently, the painted line was evenly divided into seven equal areas. Each area was rubbed with an absorbent cotton that had been impregnated with, but to a degree which would not allow a leakage of, the industrial use cleanser of Examples 14, 14A, and 14B, or the oil agent of Comparative Examples 10, 11, 11A, and 11B, while loading a pressure of about 200 g in a reciprocating manner thirty times. From the proportion of the ink of the line painted with the oil paint pen which had been able to be removed by this removal operation, the cleansing properties of the respective industrial use cleansers of Examples 14, 14A, and 14B, or the respective oil agents of Comparative Examples 10, 11, 11A, and 11B, as the agent to remove the oil soluble colorant, were evaluated by eye in accordance with the following criteria.
<Evaluation Criteria of Cleansing Properties>
Excellent: High cleansing properties, meaning that a proportion of 75 to 100% in the line painted with the oil paint pen on the coated steel panel was able to be removed.
Good: Relatively high cleansing properties, meaning that a proportion of 50 to 75% in the line painted with the oil paint pen on the coated steel panel was able to be removed.
Moderate: Some cleansing properties, meaning that only a proportion of 25 to 50% in the line painted with the oil paint pen on the coated steel panel was able to be removed.
Poor: Weak cleansing properties, meaning that only a proportion of 0 to 25% in the line painted with the oil paint pen on the coated steel panel was able to be removed.
The cleansing properties and the low corrosion properties of the respective industrial use cleansers as an agent to remove an oil soluble colorant for a coated steel panel were evaluated in the same manner as those of the industrial use cleanser in Example 14. […]

[7] = Oxidative stability by conductometric determination method (CDM, Rancimat); format: physicochemical; conditions: 3 g, 120° C., air flow 8 L/h
Protocol: Furthermore, the oxidative stability was compared between the cosmetic preparation compositions of Example 12 and Comparative Example 4. Specifically speaking, these cosmetic preparation compositions were evaluated for the oxidative stability by a conductometric determination method (CDM method). […] A greater increase in the conductivity per unit time means a lower oxidative stability of the cosmetic preparation composition. Conversely, a smaller increase in the conductivity per unit time means a higher oxidative stability of the cosmetic preparation composition. The conductivity was measured by using a rancimat instrument (Type: Rancimat 743, a product of Metrohm-Sibata Ltd.) in a condition where 3 g of the sample was examined under heating at 120° C. with an air flow rate of 8 L/h.

[8] = 0.01 g airtight in Finn Chamber 24 hours, skin observed 1 hour after removal, seven panelists

Molecule	Moisturizing properties [1]	Viscosity (mPa · s) (20° C.) [2]	Changed value of friction coefficient [3]	Friction coefficient [3]	Cleansing properties [4]	Low irritation properties [5, 8]	Cleansing properties [6]	further results
CCCCCCCCCCCCCCCCCC(=O)OCCCOC(=O)CCCCCCCCCCCCCCCCC [Comparative Example 4A, PDO distearate]	Moderate	Not measurable						
CC(CCC(C(=O)OCCCOC(=O)C(CCC(C)CC(C)(C)C)C(C)CC(C)(C)C)C(C)CC(C)(C)C)CC(C)(C)C (centres unmarked) [Comparative Example 4B]	Good	1003 mPa · s	0.0080	0.170				
CC(C)CCCC(C)CCCC(C)CCCCC(C)CCCC(C)CCCC(C)C (centres unmarked) [Comparative Example 5, squalane]	Good	36.0 mPa · s	0.0062	0.155				
CC(C)CCCCCCOC(=O)CCCCCC(C)C [Comparative Example 8, isononyl isononanoate, reference compound]					Good (Relatively high cleansing properties, meaning that a proportion of 50 to 75% in the line painted with the oil paint pen was able to be removed.)	Poor		Condition of the skin of the airtightly applied part ([5]; 0.01 g airtight in Finn Chamber 24 hours, skin observed 1 hour after removal): a notable rash was found
CCO [Comparative Example 10, ethanol, reference compound]							Excellent (High cleansing properties, meaning that a proportion of 75 to 100% in the line painted with the oil paint pen on the coated steel panel was able to be removed.)	
CCCCCCCC(=O)OCCCOC(=O)CCCCCCC [Example 13A, PDO-di-n-Octanoic Acid Ester]					Excellent (High cleansing properties, meaning that a proportion of 75 to 100% in the line painted with the oil paint pen was able to be removed.)	Moderate	Excellent (High cleansing properties, meaning that a proportion of 75 to 100% in the line painted with the oil paint pen on the coated steel panel was able to be removed.)	
CCCCCCCCCC(=O)OCCCOC(=O)CCCCCCCCC [Example 13D, PDO-di-n-decanoic acid ester]					Poor (Weak cleansing properties, meaning that only a proportion of 0 to 25% in the line painted with the oil paint pen was able to be removed.)		Poor (Weak cleansing properties, meaning that only a proportion of 0 to 25% in the line painted with the oil paint pen on the coated steel panel was able to be removed.)	Low irritation properties ([5]; in vivo): Good
PDO diisostearate [Example 12]	Good	80.0 mPa · s	0.0045	0.140				Conductivity (CDM method) after 5 hours ([7]; after 5 hours): 17 μS/cm; Conductivity (CDM method) after 10 hours ([7]; after 10 hours): 45 μS/cm; Conductivity (CDM method) after 15 hours ([7]; after 15 hours): 83 μS/cm; Conductivity (CDM method) after 20 hours ([7]; after 20 hours): 127 μS/cm
PDO-C8/C10 diester [Example 13]					Excellent (High cleansing properties, meaning that a proportion of 75 to 100% in the line painted with the oil paint pen was able to be removed.)	Good	Excellent (High cleansing properties, meaning that a proportion of 75 to 100% in the line painted with the oil paint pen on the coated steel panel was able to be removed.)	
PDO-C8/C10=25:75 diester [Example 13C]					Moderate (Some cleansing properties, meaning that only a proportion of 25 to 50% in the line painted with the oil paint pen was able to be removed.)	Good	Moderate (Some cleansing properties, meaning that only a proportion of 25 to 50% in the line painted with the oil paint pen on the coated steel panel was able to be removed.)	
PDO-C8/C10=50:50 diester [Example 13B]					Good (Relatively high cleansing properties, meaning that a proportion of 50 to 75% in the line painted with the oil paint pen was able to be removed.)	Good	Good (Relatively high cleansing properties, meaning that a proportion of 50 to 75% in the line painted with the oil paint pen on the coated steel panel was able to be removed.)	
PDO-Garbett isostearic acid diester [Comparative Example 4C]	Poor	57.5 mPa · s	0.0056	0.147				
